Legend:
[1] = Suppression of the decrease in the pancreatic weight in a model of spontaneous chronic pancreatitis; type: in vivo, male WBN/Kob rats; settings: in feed: pioglitazone 0.05% (25 mg/kg/day), BRL-49653 0.005% (2.5), Compound A 0.005% (3.0); three months; normal 1152 ± 43, control 680 ± 26; ***p < 0.001 (pioglitazone, BRL-49653), **p < 0.01 (Compound A)
Excerpt: The test animals were male WBN/Kob rats, which are commonly used as models of spontaneous chronic pancreatitis and suffer pancreatic weight loss and dysfunction of the exocrine pancreatic tissue due to degeneration and necrosis of the pancreatic parenchyma and its replacement by connective tissue [Tsuchitani et al., Laboratory Animals, 19(3), 200-207, (1985)]. Each group of test animals contained 4 animals, and the animals were used for the experiment when they had reached 12 weeks old. The animals were fed with powdered feed F2 mixed with 0.2% of troglitazone for three months. This group is hereinafter referred to as "the treated group". The average dose of the compound during this period was 140 mg/kg/day. Meanwhile, another four rats (control group) were fed with the powdered feed F2 only. After the rats had been fed with the feeds for three months, the pancreas of each animal was totally enucleated and its weight was measured.
(§1) The procedure described in Example 2 was repeated, except that the test compound was pioglitazone ("the pioglitazone group"), BRL-49653 ("the BRL-49653 group"), or Compound A ("the Compound A group").

[2] = Histopathology of pancreatic tissue of Example 3: total cross-sectional area and cicatrized area; type: in vivo, male WBN/Kob rats; settings: doses of Example 3
Protocol: The measurement of the cicatrized area may also be carried out by conventional procedures. More specifically, male WBN/Kob rats are used as models of spontaneous chronic pancreatitis and are fed with a powdered feed admixed with a test compound. The pancreas of each animal is then totally enucleated. Its weight is measured and also the cicatrized area is measured relative to the total cross-sectional area of the pancreas tissue sliced by an image analyser.
as §1
In order to evaluate the results of Example 2 histopathologically, each pancreas used for weight measurement in Example 2 was fixed in 10% neutral formalin. It was then divided into a spleen side half and a duodenum side half, and each half was sliced at 3 mm intervals to provide cross-sectional tissue pieces. All of these tissue pieces were subjected to paraffin sectioning by conventional procedures and then to hematoxylin-eosin staining and Masson's trichrome staining to prepare two tissue preparations, which were used for histopathological examination. The total cross-sectional area of the pancreatic tissue piece on each preparation was measured using an image analyser (SPICCAII, manufactured by Olympus Optical Co., Ltd.).
In addition, the surface area of the zone which had undergone degeneration and necrosis and in which the exocrine pancreatic tissue was replaced with connective tissue (the cicatrized area) was measured using an image analyser.
In order to evaluate the results of Example 3 histopathologically, the total cross-sectional area and cicatrized area of each pancreas whose weight was measured in Example 3 was measured by the procedure described in Example 4.

[3] = Acute toxicity; type: in vivo, ddY mice (male); settings: oral dose of 300 mg/kg or more
Protocol: Acute toxicity was assayed by conventional procedures. […] At the end of this time, the animals were all alive. When the acute toxicities of Compounds No. 2, 3, 4 and 10 were measured in the same manner, the mice were all alive after an oral dose of 300 mg/kg or more.

[4] = duodenum side, control 5.52 ± 0.86, **p < 0.01 all three
[5] = duodenum side, control 90.3 ± 14.9
[6] = spleen side pancreatic half, control 8.11 ± 0.76, *p < 0.05 pioglitazone, **p < 0.01 Compound A
[7] = spleen side pancreatic half, control 99.3 ± 9.8, **p < 0.01 pioglitazone, *p < 0.05 BRL-49653

CN(CCOc1ccc(CC2SC(=O)NC2=O)cc1)c1ccccn1 (stereo not shown) [BRL-49653, 5-[4-{2-[N-Methyl-N-(pyridin-2-yl)amino]ethoxy}benzyl]-thiazolidine-2,4-dione]
Pancreatic weight [1]: 976 ± 51 mg
Cicatrized area in the exocrine pancreatic tissue [2, 4]: 1.21 ± 0.40 mm^2
Total cross-sectional area of pancreatic tissue piece [2, 5]: 100.9 ± 2.1 mm^2
Cicatrized area in the exocrine pancreatic tissue [2, 6]: 5.40 ± 1.35 mm^2
Total cross-sectional area of pancreatic tissue piece [2, 7]: 147.2 ± 14.2 mm^2

CC(=NOCCOc1ccc(CC2SC(=O)NC2=O)cc1)c1ccc(-c2ccccn2)cc1 (stereo not shown) [Compound A, 5-(4-{2-[1-(4-2'-pyridylphenyl)ethylideneaminooxy]ethoxy}-benzyl)thiazolidine-2,4-dione]
Pancreatic weight [1]: 853 ± 44 mg
Cicatrized area in the exocrine pancreatic tissue [2, 4]: 1.17 ± 0.15 mm^2
Total cross-sectional area of pancreatic tissue piece [2, 5]: 90.3 ± 10.2 mm^2
Cicatrized area in the exocrine pancreatic tissue [2, 6]: 2.62 ± 0.51 mm^2
Total cross-sectional area of pancreatic tissue piece [2, 7]: 100.8 ± 12.5 mm^2

CCc1ccc(CCOc2ccc(CC3SC(=O)NC3=O)cc2)nc1 (stereo not shown) [Pioglitazone, 5-{4-[2-(5-Ethylpyridin-2-yl)ethoxy]benzyl}thiazolidine-2,4-dione]
Pancreatic weight [1]: 982 ± 52 mg
Cicatrized area in the exocrine pancreatic tissue [2, 4]: 1.12 ± 0.26 mm^2
Total cross-sectional area of pancreatic tissue piece [2, 5]: 122.0 ± 9.8 mm^2
Cicatrized area in the exocrine pancreatic tissue [2, 6]: 4.98 ± 1.03 mm^2
Total cross-sectional area of pancreatic tissue piece [2, 7]: 157.8 ± 16.1 mm^2

Cc1c(C)c2c(c(C)c1O)CCC(COc1ccc(CC3SC(=O)NC3=O)cc1)O2 (stereo not shown) [compound 2]
Survival (acute toxicity) [3]: all alive

CC1(COc2ccc(CC3SC(=O)NC3=O)cc2)CCc2cc(O)ccc2O1 (stereo not shown) [compound 3]
Survival (acute toxicity) [3]: all alive

CC1(COc2ccc(CC3SC(=O)NC3=O)cc2)CCc2cc(O)c(C(C)(C)C)cc2O1 (stereo not shown) [compound 4, 5-[4-(6-Hydroxy-2-methyl-7-t-butylchroman-2-ylmethoxy)benzyl]thiazolidine-2,4-dione]
Survival (acute toxicity) [3]: all alive

CCOC(=O)Oc1c(C)c(C)c2c(c1C)CCC(C)(COc1ccc(CC3SC(=O)NC3=O)cc1)O2 (stereo not shown) [compound 10, 5-[4-(6-Ethoxycarbonyloxy-2,5,7,8-tetramethylchroman-2-ylmethoxy)benzyl]-thiazolidine-2,4-dione]
Survival (acute toxicity) [3]: all alive

Source: patent publication US5753681A, “Treatment and prophylaxis of pancreatitis” (Sankyo Company, Limited, priority 1996, dated 1998)
